The test system of one experiment is Akt(S473). The experiment can be described thus: Phospho-Akt(S473) in PC3 cell lysates, MSD. Type of experiment: cell-based, human. The note with it: PC3, 1 hour exposure; read-out: p-Akt (S473) IC50. From the text: The direct substrate for TORC1 was 4E-BP 1(T46) and indirect downstream substrate was S6RP(S235/S236). The direct substrate for TORC2 was Akt(S473) and indirect downstream substrates measured were GSK3β(S9) and PRAS40(T246). Additionally, the phosphorylation status of Akt(T308), a phosphorylation site for PDK1 was monitored.
MSD® biomarker detection assays provide a rapid and convenient method for measuring the total and phosphorylated levels of protein targets within a single small volume sample. These assays are available in both single-plex and multiplex formats. In a single-plex assay, an antibody for a specific protein target is coated on one electrode (or spot) per well. […] MSD Read Buffer that provides the appropriate chemical environment for ECL is added and the plate is read using an MSD SECTOR™ Imager. […] The instrument measures intensity of the emitted light to afford a quantitative measure of the amount of phosphorylated Akt or S6RP present in the sample. […]
The assay plate was incubated with 150 μL of MSD Blocker A Solution for 1 hour with shaking at room temperature. […] Then 150 μL of 1×MSD Read Buffer T was added to each well. The plate was read on the SECTOR Imager plate reader. The Excel data was transferred to Activity Base and IC50 values were calculated.
All data was analyzed using XLfit from IDBS. […]

The next experiment concerns Ki-67. Put plainly: Ki-67 immunohistochemistry in PC3 tumors (Compound 1). Conditions: 25 mg/kg oral QD for 6 days, 2 hours after last dose. Type of experiment: in vivo, SCID mice. The method, then:
Two hours after the last dose of either vehicle, Compound 1, or rapamycin, the mice were euthanized and the tumors were dissected. The tumors were snap frozen in liquid nitrogen and processed for immunohistochemistry (IHC) and TUNEL.
Five to ten micron thick cryostat sections of tumor samples were used for IHC. The expression of a cell proliferation marker Ki-67 was evaluated by IHC using anti-Ki-67 antibody. Anti-CD-31 antibody was used to determine blood vessel density and is a measurement of tumor angiogenesis. Frozen sections were fixed in 4% paraformaldehyde for 10 minutes at room temperature, washed in PBS, blocked and permeabilized with normal goat serum and triton x-100. Sections were then incubated with primary antibody (overnight) followed by incubation with secondary antibody (60 minutes). […] The sections were visualized with a Nikon E800 microscope equipped with fluorescence detection equipment and a digital camera attached to a computer.
The tissues sections processed for apoptosis or immunostained for proliferating cells (Ki-67) or blood vessels were quantitated using Metamorph software. Using 20× objective, 5 different fields from each section, 2 to 4 sections from each tumor, and 3 to 4 tumors from each treatment group or control were used for quantitation. The area of interest was expressed as the percent threshold area of the total area.

For the compound `CO[C@H]1CC[C@H](N2C(=O)CNc3ncc(-c4ccc(C(C)(C)O)nc4)nc32)CC1` [Compound 1, 7-(6-(2-hydroxypropan-2-yl)pyridin-3-yl)-1-((1r,4r)-4-methoxycyclohexyl)-3,4-dihydropyrazino-[2,3-b]pyrazin-2(1H)-one], the IC50 in the experiment on Akt(S473) amounted to 10 nM. Moreover, the “reduction in the number of proliferating cells (Ki-67) vs vehicle” value in the experiment with Ki-67 is listed as 84%.

As a reminder, the IC50 is the point on the concentration scale where inhibition reaches its midpoint.

These data come from patent US20140113904A1, “TREATMENT OF CANCER WITH TOR KINASE INHIBITORS” (SIGNAL PHARMACEUTICALS, LLC, priority 2012, published 2014).
